Data reported in ChEMBL document CHEMBL1146950, “Matrix compare analysis discriminates subtle structural differences in a family of novel antiproliferative agents, diaryl-3-hydroxy-2,3,3a,10a-tetrahydrobenzo[b]cycylopenta[e]azepine-4,10(1H,5H)-diones” (2006).

Assays:
HOP-62 = assay: Antiproliferative activity against HOP62 cell line; type: functional, Homo sapiens; design: unit not given here
NCI-H460 = assay: Antiproliferative activity against NCI-H460 cell line; type: functional, Homo sapiens
[1] = biological target: Angiopoietin-1 receptor (Homo sapiens) (UniProt Q02763); assay: Inhibition of TIE2 at 10 uM in presence of 0.1 uM ATP
[2] = biological target: Epidermal growth factor receptor (Homo sapiens) (UniProt P00533); assay: Inhibition of EGFR at 10 uM in presence of 0.1 uM ATP
[3] = biological target: Vascular endothelial growth factor receptor 2 (Homo sapiens) (UniProt P35968); assay: Inhibition of VEGFR2 at 10 uM in presence of 0.1 uM ATP
[4] = biological target: Vascular endothelial growth factor receptor 1 (Homo sapiens) (UniProt P17948); assay: Inhibition of VEGFR1 at 10 uM in presence of 0.1 uM ATP
[5] = biological target: Insulin-like growth factor 1 receptor (Homo sapiens) (UniProt P08069); assay: Inhibition of IGF1R at 10 uM in presence of 0.1 uM ATP
[6] = biological target: Receptor tyrosine-protein kinase erbB-2 (Homo sapiens) (UniProt P04626); assay: Inhibition of ErbB2 at 10 uM in presence of 0.1 uM ATP
[7] = biological target: T1, Ephrin type-B receptor 4 (Homo sapiens) (UniProt P54760); assay: Inhibition of EPHB4 at 10 uM in presence of 0.1 uM ATP
T1 sequence (whole entry): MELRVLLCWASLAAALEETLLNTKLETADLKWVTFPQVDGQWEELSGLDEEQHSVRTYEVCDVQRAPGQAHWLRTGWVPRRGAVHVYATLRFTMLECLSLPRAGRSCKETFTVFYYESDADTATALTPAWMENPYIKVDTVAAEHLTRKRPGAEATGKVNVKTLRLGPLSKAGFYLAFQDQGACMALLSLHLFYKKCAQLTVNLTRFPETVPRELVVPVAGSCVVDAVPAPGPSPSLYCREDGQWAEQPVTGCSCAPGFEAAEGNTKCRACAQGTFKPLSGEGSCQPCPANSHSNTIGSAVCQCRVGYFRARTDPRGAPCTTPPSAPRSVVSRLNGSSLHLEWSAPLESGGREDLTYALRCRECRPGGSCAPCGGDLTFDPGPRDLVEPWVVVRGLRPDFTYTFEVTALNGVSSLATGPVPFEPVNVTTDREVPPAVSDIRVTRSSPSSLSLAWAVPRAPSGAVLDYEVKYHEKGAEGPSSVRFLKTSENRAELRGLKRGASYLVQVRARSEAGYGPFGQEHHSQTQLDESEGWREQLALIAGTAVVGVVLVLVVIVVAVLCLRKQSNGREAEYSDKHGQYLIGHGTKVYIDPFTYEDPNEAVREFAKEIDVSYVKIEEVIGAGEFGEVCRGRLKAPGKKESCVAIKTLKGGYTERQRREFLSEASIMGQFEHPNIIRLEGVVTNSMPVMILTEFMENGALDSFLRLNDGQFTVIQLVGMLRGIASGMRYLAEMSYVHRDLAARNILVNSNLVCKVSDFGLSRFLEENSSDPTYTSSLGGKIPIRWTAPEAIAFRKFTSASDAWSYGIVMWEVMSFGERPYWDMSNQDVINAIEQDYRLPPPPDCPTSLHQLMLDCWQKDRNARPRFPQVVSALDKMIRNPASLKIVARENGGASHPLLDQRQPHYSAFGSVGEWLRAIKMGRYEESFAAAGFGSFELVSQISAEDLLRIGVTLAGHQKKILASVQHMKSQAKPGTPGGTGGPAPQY

Vascular endothelial growth factor receptor 2 (Homo sapiens), sequence (P35968 whole entry): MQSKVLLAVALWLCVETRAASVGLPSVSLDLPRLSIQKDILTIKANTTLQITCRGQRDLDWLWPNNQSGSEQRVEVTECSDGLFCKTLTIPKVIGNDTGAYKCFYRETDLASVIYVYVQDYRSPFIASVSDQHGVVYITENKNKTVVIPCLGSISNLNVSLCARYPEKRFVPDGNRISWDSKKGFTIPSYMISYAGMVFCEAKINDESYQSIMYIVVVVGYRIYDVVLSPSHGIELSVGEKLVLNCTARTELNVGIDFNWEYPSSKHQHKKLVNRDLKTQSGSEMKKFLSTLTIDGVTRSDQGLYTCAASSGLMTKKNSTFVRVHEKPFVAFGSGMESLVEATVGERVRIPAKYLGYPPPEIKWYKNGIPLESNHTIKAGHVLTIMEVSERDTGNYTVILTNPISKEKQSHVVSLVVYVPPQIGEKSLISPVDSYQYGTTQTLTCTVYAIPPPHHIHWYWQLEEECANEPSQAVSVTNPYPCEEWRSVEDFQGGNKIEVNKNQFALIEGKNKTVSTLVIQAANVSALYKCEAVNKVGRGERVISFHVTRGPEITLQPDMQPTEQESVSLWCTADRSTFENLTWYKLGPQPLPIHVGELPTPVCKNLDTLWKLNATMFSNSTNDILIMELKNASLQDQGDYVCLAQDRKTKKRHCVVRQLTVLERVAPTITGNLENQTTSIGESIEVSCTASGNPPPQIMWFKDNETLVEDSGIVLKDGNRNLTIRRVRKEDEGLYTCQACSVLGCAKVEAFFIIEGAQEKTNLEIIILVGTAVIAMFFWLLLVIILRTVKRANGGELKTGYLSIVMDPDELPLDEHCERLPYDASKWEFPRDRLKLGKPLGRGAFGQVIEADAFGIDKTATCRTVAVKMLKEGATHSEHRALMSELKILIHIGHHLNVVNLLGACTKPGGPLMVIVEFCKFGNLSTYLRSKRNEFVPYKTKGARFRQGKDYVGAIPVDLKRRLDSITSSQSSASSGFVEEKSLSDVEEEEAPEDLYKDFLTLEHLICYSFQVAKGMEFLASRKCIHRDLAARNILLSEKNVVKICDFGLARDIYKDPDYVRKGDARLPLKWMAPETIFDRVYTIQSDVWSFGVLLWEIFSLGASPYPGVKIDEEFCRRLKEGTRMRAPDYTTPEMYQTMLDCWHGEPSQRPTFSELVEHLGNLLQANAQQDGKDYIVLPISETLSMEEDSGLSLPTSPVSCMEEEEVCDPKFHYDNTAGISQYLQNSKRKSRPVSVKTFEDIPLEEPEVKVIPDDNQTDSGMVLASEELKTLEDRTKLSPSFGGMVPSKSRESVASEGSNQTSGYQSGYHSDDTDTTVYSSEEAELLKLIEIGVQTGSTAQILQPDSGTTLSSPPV
Receptor tyrosine-protein kinase erbB-2 (Homo sapiens), sequence (P04626 whole entry): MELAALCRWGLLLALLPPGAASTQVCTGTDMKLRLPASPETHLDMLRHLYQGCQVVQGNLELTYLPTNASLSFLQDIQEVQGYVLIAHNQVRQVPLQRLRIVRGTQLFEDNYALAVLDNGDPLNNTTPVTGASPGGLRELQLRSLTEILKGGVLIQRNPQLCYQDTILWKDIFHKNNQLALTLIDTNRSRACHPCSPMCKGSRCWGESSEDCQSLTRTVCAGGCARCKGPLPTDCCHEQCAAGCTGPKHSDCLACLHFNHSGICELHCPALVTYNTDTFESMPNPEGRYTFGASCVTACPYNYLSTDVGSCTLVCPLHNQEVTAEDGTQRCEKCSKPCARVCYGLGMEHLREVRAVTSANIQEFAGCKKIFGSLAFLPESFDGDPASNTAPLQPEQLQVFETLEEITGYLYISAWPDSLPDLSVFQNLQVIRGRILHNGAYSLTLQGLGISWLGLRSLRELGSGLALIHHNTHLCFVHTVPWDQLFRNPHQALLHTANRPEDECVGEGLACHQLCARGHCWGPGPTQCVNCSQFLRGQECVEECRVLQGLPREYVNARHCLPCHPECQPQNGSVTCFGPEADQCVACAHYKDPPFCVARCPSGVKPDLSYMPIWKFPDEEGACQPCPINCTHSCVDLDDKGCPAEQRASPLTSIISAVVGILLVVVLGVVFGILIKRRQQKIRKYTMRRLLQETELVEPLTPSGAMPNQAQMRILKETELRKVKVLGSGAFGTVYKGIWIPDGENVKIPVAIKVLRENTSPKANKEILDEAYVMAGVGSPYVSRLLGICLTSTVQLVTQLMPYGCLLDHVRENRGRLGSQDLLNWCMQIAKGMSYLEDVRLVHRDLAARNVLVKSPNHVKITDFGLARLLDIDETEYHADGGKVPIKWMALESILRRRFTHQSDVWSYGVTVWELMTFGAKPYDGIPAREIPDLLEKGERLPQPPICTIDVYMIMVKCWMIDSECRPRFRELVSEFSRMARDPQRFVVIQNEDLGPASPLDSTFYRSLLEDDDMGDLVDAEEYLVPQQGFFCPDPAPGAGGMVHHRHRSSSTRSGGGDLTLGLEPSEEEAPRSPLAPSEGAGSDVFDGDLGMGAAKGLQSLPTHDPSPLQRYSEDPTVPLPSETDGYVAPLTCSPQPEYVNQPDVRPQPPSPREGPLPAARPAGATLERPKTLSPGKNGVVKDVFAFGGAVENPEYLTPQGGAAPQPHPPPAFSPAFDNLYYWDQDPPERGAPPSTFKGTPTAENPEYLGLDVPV
Insulin-like growth factor 1 receptor (Homo sapiens), sequence (P08069 31-736 limits assumed): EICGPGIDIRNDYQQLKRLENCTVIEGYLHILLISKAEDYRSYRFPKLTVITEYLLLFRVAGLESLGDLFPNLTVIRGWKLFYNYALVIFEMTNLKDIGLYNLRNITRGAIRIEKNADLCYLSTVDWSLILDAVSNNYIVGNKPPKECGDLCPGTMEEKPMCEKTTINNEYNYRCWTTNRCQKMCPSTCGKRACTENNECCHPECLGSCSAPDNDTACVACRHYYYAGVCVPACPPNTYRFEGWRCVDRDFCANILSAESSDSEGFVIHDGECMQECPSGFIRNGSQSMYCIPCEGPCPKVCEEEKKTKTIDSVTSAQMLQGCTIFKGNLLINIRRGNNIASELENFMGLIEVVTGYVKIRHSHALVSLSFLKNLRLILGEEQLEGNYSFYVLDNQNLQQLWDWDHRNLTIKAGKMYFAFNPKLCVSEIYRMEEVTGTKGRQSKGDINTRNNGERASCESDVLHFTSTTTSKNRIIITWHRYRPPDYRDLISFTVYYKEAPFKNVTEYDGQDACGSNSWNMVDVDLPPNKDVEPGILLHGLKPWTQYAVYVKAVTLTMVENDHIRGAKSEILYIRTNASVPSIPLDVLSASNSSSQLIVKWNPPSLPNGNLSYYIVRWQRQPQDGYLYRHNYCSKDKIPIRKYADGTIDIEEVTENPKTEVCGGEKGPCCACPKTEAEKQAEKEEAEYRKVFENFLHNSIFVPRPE
Insulin-like growth factor 1 receptor (Homo sapiens), sequence (P08069 741-1367 limits assumed): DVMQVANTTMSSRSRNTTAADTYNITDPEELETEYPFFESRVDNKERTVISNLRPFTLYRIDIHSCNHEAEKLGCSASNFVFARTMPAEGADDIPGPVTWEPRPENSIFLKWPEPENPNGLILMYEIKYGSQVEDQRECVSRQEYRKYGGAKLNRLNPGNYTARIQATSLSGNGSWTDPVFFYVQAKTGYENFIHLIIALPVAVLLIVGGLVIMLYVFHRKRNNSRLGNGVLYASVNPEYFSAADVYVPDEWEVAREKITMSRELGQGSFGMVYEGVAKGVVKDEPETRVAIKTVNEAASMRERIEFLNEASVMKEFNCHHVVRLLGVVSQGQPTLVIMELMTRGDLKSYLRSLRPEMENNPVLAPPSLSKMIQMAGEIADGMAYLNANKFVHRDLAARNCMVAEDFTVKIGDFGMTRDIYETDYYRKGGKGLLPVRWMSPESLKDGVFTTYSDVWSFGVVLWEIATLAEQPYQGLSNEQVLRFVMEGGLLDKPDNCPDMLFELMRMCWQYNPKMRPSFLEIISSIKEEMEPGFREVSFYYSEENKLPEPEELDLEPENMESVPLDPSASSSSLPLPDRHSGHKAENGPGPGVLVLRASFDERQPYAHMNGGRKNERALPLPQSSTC
Angiopoietin-1 receptor (Homo sapiens), sequence (Q02763 whole entry): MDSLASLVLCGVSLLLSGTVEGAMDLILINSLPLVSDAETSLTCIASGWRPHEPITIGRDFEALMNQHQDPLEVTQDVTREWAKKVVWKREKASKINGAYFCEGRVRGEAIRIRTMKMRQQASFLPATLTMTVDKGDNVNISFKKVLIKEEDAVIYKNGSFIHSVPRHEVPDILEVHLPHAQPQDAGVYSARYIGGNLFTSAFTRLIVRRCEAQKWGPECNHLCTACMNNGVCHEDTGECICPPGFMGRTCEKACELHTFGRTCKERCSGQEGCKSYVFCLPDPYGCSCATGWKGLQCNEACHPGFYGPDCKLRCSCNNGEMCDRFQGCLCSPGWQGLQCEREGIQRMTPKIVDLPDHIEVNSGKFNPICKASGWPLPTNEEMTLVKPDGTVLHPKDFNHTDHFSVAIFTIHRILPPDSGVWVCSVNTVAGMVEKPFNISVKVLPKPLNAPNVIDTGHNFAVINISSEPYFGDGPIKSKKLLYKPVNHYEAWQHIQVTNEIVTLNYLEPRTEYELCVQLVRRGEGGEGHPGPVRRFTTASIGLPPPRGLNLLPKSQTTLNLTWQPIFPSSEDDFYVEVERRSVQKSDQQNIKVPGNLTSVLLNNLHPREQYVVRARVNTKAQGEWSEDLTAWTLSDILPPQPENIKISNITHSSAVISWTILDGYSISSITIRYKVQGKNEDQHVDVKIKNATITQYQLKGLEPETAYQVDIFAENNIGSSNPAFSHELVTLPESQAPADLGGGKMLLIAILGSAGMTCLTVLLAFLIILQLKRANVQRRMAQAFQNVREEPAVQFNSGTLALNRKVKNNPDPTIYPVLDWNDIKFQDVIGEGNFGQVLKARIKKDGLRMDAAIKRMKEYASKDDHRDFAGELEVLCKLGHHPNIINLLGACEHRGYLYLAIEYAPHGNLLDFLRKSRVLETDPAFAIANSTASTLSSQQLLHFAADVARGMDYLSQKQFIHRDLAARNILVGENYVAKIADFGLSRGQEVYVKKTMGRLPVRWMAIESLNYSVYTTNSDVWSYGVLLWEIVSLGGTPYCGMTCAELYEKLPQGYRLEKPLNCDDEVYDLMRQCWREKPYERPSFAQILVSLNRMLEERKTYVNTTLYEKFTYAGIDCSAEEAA

SMILES | pGI50 (NCI-H460) [M] | pGI50 (HOP-62) | further results
O=C1c2ccccc2NC(=O)[C@H]2[C@H]1[C@@H](c1ccccc1)C[C@]2(O)c1ccc2c(c1)OCO2 | 5.6 | 4.1 | –
O=C1c2ccccc2NC(=O)[C@H]2[C@H]1[C@@H](c1ccccc1)C[C@]2(O)c1ccc2ccccc2c1 | 6.7 | >4 | –
O=C1c2ccccc2NC(=O)[C@H]2[C@H]1C[C@@H](c1ccc(Cl)cc1)[C@]2(O)c1ccccc1 | 5.4 | 5.6 | –
COc1ccc([C@H]2C[C@](O)(c3ccccc3)[C@H]3C(=O)Nc4ccccc4C(=O)[C@H]23)cc1 | 5.1 | >4 | –
O=C1c2ccccc2NC(=O)[C@H]2[C@H]1[C@@H](c1ccc(Cl)cc1)C[C@]2(O)c1ccccc1 | 5 | >4 | –
O=C1c2ccccc2NC(=O)[C@H]2[C@H]1[C@@H](c1ccccc1)C[C@]2(O)c1cccc(Cl)c1 | 5.7 | >4 | –
COc1ccc([C@@H]2C[C@H]3C(=O)c4ccccc4NC(=O)[C@@H]3[C@@]2(O)c2ccccc2)cc1 | 4.9 | 5.6 | –

The next lines start with results.

pGI50 (NCI-H460) [M] | SMILES | pGI50 (HOP-62) | further results
5.4 | Cc1ccc([C@@H]2C[C@H]3C(=O)c4ccccc4NC(=O)[C@@H]3[C@@]2(O)c2ccc(C)cc2)cc1 | 5.2 | –
4.6 | O=C1c2ccccc2NC(=O)[C@H]2[C@H]1C[C@@H](c1cccc(Cl)c1)[C@]2(O)c1ccccc1 | 5.1 | –
5 | COc1ccc([C@H]2C[C@](O)(c3cccc(Cl)c3)[C@H]3C(=O)Nc4ccccc4C(=O)[C@H]23)cc1 | >4 | –
5.4 | O=C1c2ccccc2NC(=O)[C@H]2[C@H]1C[C@@H](c1ccccc1)[C@]2(O)c1ccccc1 | 5.4 | –
5.7 | Cc1ccc([C@@]2(O)[C@H](c3ccc(Cl)cc3)C[C@H]3C(=O)c4ccccc4NC(=O)[C@@H]32)cc1 | 5.3 | –
5.2 | O=C1c2ccccc2NC(=O)[C@H]2[C@H]1[C@@H](c1cccc(Cl)c1)C[C@]2(O)c1ccccc1 | >4 | inhibition [1]: > 50%; inhibition [2]: > 50%; inhibition [3]: > 50%; inhibition [4]: > 50%; inhibition [5]: > 50%; inhibition [6]: > 50%; inhibition [7]: > 50%
4.7 | Cc1ccc([C@@]2(O)[C@H](c3ccccc3)C[C@H]3C(=O)c4ccccc4NC(=O)[C@@H]32)cc1 | 5.4 | –
5.1 | Cc1ccc([C@@H]2C[C@H]3C(=O)c4ccccc4NC(=O)[C@@H]3[C@@]2(O)c2ccccc2)cc1 | 5.6 | –
